One data set concerns the target T1, FXR LBD, GST (Homo sapiens, UniProt Q96RI1).
T1 construct: FXR LBD, GST; purchased Invitrogen PV4834
T1 sequence (Q96RI1 262-486 limits assumed): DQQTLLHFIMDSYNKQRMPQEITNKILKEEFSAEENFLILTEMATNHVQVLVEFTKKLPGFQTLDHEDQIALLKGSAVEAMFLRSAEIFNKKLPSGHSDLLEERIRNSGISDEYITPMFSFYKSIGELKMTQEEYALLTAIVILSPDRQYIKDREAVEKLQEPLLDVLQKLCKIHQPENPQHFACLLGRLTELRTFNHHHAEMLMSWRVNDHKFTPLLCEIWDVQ
Description: FXR Binding Assay (TR-FRET, Fluorescein-SRC2-2 coactivator peptide). The following applies: for Emax / Pct Effect (Emax %): % Activity relative to positive control; for Emax: read-out: Pct Effect (Emax %); for EC50: TR-FRET FXR LBD coactivator recruitment. In general terms: TR-FRET usually uses a lanthanide donor and a delayed reading to cut background.

In data set [1] the target is T2, hFXR-LBD (FXR-GAL4 chimeric receptor) (Homo sapiens, UniProt Q96RI1).
T2 construct: host or cells: HEK293T
T2 sequence (Q96RI1 262-486 limits assumed): T1 sequence (Q96RI1 262-486 limits assumed)
The experiment in a line: FXR Transactivation Assay (GAL4 luciferase reporter in HEK293T cells). Format: cell-based. The protocol: FXR Transactivation Assay
The present compounds were tested to assess their ability to stimulate FXR transactivation activity. The hFXR-LBD, coding sequence was inserted into the pBIND expression vector (Promega, E1581) to express FXR-GAL4 binding domain chimeric receptors. This expression vector and reporter vector (pGL4.35 which carry a stably integrated GAL4 promoter driven luciferase reporter gene) were co-transfected into HEK293T host cells. Upon agonist binding to the corresponding FXR-GAL4 chimeric receptor, the chimeric receptor binds to the GAL4 binding sites and stimulates the reporter gene.
All the working stock were shake for 5 min on plate shaker (QILINBEIER). Second, all cells were cultured as ATCC recommended. HEK293T cells were assayed in exponential growth phase. Removed culture medium from the flask and rinsed cells with PBS. Added TrypLE solution to the flask and make cells detach. Next, cells were washed once with complete growth medium. Then, cells were pelleted and washed twice with PBS to remove phenol red and resuspend them in medium to a proper concentration. Only cells with viability greater than 90% were used for assays. Seeded 6×10^6 HEK293T cells into a 100 mm dish and incubated at 37° C. under 5% CO2 atmosphere for 16 h. Third, Trans-IT reagent and Opti-MEM mix by inversion and incubate 5 min at room temperature. The cell transfection was performed by mixing DNA and the reagent mixture, as well as 6 μg GAL4-FXR plasmid or 2 μg pGL4.35 luciferase plasmid, respectively. The reagent mixture was added to a 100 mm dish and incubated for 4-7 hrs at 37° C. under 5% CO2 atmosphere. Fourth, transferred 75 nl compound dilutions into 384-well assay plates (PerkinElmer) and seeded HEK293T cells at 17,000 cells/well using phenol red-free DMEM containing 5% charcoal/dextran-treated FBS. Then, cells were incubated for 16-20 h at 37° C. under 5% CO2 atmosphere. Finally, added 25 μl Steady-Glo™ Luciferase Assay Reagent into each well of 384-well assay plate, and then shake plate for 5 min protected from light on a plate shaker. Then, the luminescence value was read on Evision 2104 plate reader (PerkinElmer).
The activity ratio was calculated as follow: […]
RLU: Resulting Luminescence
RLUpositive: The average RLU for the positive controls across the plate.
RLUvehicle: The average RLU for negative controls across the plate.
EC50 was calculated by fitting % Activity values and log of compound concentrations to nonlinear regression (dose response-variable slope) with GraphPad 5.0.
X: log of compound concentration.
In general terms: A reporter such as luciferase makes a cellular process visible.

For data set [2] the following is noted: in vivo; cited from earlier work.
The target in the next data set is T3, FXR (Homo sapiens, UniProt Q96RI1).
T3 sequence (Q96RI1 1-486): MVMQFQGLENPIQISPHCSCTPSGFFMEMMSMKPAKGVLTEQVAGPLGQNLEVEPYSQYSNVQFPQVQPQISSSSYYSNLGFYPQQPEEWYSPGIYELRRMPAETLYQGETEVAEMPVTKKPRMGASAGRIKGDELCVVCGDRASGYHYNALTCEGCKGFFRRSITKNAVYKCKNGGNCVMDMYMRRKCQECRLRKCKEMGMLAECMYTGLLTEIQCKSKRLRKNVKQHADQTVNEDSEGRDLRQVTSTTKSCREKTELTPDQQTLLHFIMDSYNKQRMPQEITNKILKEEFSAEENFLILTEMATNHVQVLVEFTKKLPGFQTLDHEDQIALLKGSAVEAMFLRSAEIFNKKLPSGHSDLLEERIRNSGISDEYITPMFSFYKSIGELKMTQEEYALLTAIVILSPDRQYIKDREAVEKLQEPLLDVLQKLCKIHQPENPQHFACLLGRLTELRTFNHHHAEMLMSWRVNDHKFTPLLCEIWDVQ
As to conditions: cited from earlier work.

The conditions of data set [3]: cited from earlier work.
For data set [4] the following is noted: preclinical species; cited from earlier work.
The next data set deals with other nuclear receptor. The following applies: cited from earlier work.
For data set [5] the following is noted: OCA treatment, clinical studies; cited from earlier work.

The text below walks through data of patent US20220227745A1, “Compounds For Modulating FXR” (NANJING RUIJIE PHARMA TECH CO., LTD., priority 2019, published 2022).

SMILES strings stand for the structures.

As to `Cn1cc(C(=O)O)c2ccc(N3CCN(CCc4c(-c5ccccc5C(F)(F)F)noc4C4CC4)CC3)cc21` [Example I26, 6-(4-(2-(5-cyclopropyl-3-(2-(trifluoromethyl)phenyl)isoxazol-4-yl)ethyl)piperazin-1-yl)-1-methyl-1H-indole-3-carboxylic Acid], the Emax at FXR LBD, GST was determined as 214%. Also, the EC50 at FXR LBD, GST was determined as 882 nM; in data set [1], 1210 nM.
Taken in the same sequence, the figures for `Cc1onc(-c2c(Cl)cccc2Cl)c1CCN1CCN(c2ccc3c(C(=O)O)cn(C)c3c2)CC1` [Example I27, 6-(4-(2-(3-(2,6-dichlorophenyl)-5-methylisoxazol-4-yl)ethyl)piperazin-1-yl)-1-methyl-1H-indole-3-carboxylic Acid] were 91.1%, 454 nM and 1800 nM.
On to `Cn1cc(C(=O)O)c2ccc(N3C4CCC3CN(CCc3c(-c5c(Cl)cccc5Cl)noc3C3CC3)C4)cc21` [Example I30, 6-(3-(2-(5-cyclopropyl-3-(2,6-dichlorophenyl)isoxazol-4-yl)ethyl)-3,8-diazabicyclo[3.2.1]octan-8-yl)-1-methyl-1H-indole-3-carboxylic Acid], for which, on FXR LBD, GST, the Emax turned out to be 111% and the EC50 came out at 60 nM. A half-maximal response in data set [1] (EC50) required 1200 nM.
The matching figures for `C[C@@H]1CN(c2ccc3c(C(=O)O)cn(C)c3c2)CCN1CCc1c(-c2c(Cl)cccc2Cl)noc1C1CC1` [Example I35, (R)-6-(4-(2-(5-cyclopropyl-3-(2,6-dichlorophenyl)isoxazol-4-yl)ethyl)-3-methylpiperazin-1-yl)-1-methyl-1H-indole-3-carboxylic Acid]: 156%, 97 nM and 494 nM.
Taken in the same sequence, the figures for `Cn1cc(C(=O)O)c2ccc(C3CCN(CCc4c(-c5c(Cl)cccc5Cl)noc4C4CC4)CC3)cc21` [Example I36, 6-(1-(2-(5-cyclopropyl-3-(2,6-dichlorophenyl)isoxazol-4-yl)ethyl)piperidin-4-yl)-1-methyl-1H-indole-3-carboxylic Acid] were 161%, 94 nM and 577 nM.
The matching figures for `C[C@H]1CN(c2ccc3c(C(=O)O)cn(C)c3c2)CCN1CCc1c(-c2c(Cl)cccc2Cl)noc1C1CC1` [Example I37, (S)-6-(4-(2-(5-cyclopropyl-3-(2,6-dichlorophenyl)isoxazol-4-yl)ethyl)-3-methylpiperazin-1-yl)-1-methyl-1H-indole-3-carboxylic Acid]: 232%, 101 nM and 574 nM.
On to `Cn1cc(C(=O)O)c2ccc(N3CCN(CCc4c(-c5c(Cl)cccc5Cl)noc4C4CC4)C(C)(C)C3)cc21` [Example I38, 6-(4-(2-(5-cyclopropyl-3-(2,6-dichlorophenyl)isoxazol-4-yl)ethyl)-3,3-dimethylpiperazin-1-yl)-1-methyl-1H-indole-3-carboxylic Acid], for which the maximal effect (Emax) on FXR LBD, GST came out at 133%. In addition, the EC50 on FXR LBD, GST worked out at 48 nM; in data set [1], 377 nM.
For `C[C@@H]1CN(CCc2c(-c3c(Cl)cccc3Cl)noc2C2CC2)CCN1c1ccc2c(C(=O)O)cn(C)c2c1` [Example I40, (R)-6-(4-(2-(5-cyclopropyl-3-(2,6-dichlorophenyl)isoxazol-4-yl)ethyl)-2-methylpiperazin-1-yl)-1-methyl-1H-indole-3-carboxylic Acid], at FXR LBD, GST, the Emax worked out at 131% and the EC50 stood at 77 nM. The molecule further showed an EC50 in data set [1] of 343 nM.
Regarding `Cn1cc(C(=O)O)c2cc(F)c(N3CCN(CCc4c(-c5c(Cl)cccc5Cl)noc4C4CC4)CC3)cc21` [Example I42, 6-(4-(2-(5-cyclopropyl-3-(2,6-dichlorophenyl)isoxazol-4-yl)ethyl)piperazin-1-yl)-5-fluoro-1-methyl-1H-indole-3-carboxylic Acid], at FXR LBD, GST, the “Pct Effect (Emax %)” value is reported as 196.20% and it took 99 nM to reach a half-maximal effect (EC50). The same molecule had an EC50 in data set [1] of 551 nM.
The matching figures for `Cn1cc(C(=O)O)c2cc(F)c(N3CCN(CCc4c(-c5c(Cl)cccc5Cl)noc4C4CC4)CC3)cc21` [Example I45, 6-(4-(2-(5-cyclopropyl-3-(2,6-dichlorophenyl)isoxazol-4-yl)ethyl)piperazin-1-yl)-5-fluoro-1-methyl-1H-indole-3-carboxylic Acid]: 161.70%, 72 nM and 224 nM.
Consider `CN(Cc1c(-c2c(Cl)cccc2Cl)noc1C1CC1)C1CCN(c2ccc3c(C(=O)O)cn(C)c3c2)CC1` [Example I58, 6-(4-(((5-cyclopropyl-3-(2,6-dichlorophenyl)isoxazol-4-yl)methyl)(methyl)amino)piperidin-1-yl)-1-methyl-1H-indole-3-carboxylic Acid], for which, at FXR LBD, GST, the Emax came to 83.4% and the midpoint of the response, the EC50, lay at 497 nM. For the same molecule, the EC50 in data set [1] was 2270 nM.
For the molecule `CC(C)c1onc(-c2c(Cl)cccc2Cl)c1COc1ccc(/C=C/c2cccc(C(=O)O)c2)c(Cl)c1` [GW4604], the bioavailability result in data set [2] is “low bioavailability”. Further, on FXR, the “agonistic activity to FXR” value is “strong agonistic activity”.
On to `O=C(O)c1cc(F)c2nc(N3[C@@H]4CC[C@H]3C[C@@H](OCc3c(-c5ccccc5OC(F)(F)F)noc3C3CC3)C4)sc2c1` [LJN452], for which the drug-related pruritus result in data set [3] (after multiple doses) is “No drug-related pruritus was observed”. Moreover, the ALT/AST entry in data set [3] (individual subjects) is reported as “ALT/AST increased in individual subjects”. In data set [3] (single dose of up to 3 mg), the drug-related adverse reactions entry is “No drug-related adverse reactions were observed”; the safety and tolerability result was “performed well in safety and tolerability”.
On to `Cn1cc(C(=O)O)c2ccc(N3CCC(OCc4c(-c5c(Cl)cccc5Cl)noc4C4CC4)CC3)cc21` [LY-2562175], for which, in data set [4], the “effect on LDL, triglycerides and HDL” value is “lowered LDL and triglycerides while raising HDL”. The “transcriptional activation of other nuclear receptor” value in the data set on other nuclear receptor is “didn't promote transcriptional activation of other nuclear receptor”.
`CC[C@H]1[C@@H](O)[C@@H]2[C@H](CC[C@]3(C)[C@@H]([C@H](C)CCC(=O)O)CC[C@@H]23)[C@@]2(C)CC[C@@H](O)C[C@@H]12` [OCA, 6α-ethyl-chenodeoxycholic acid]: the pruritus result in data set [5] is “may be associated with increased pruritus”.

By Emax is commonly meant the size of the effect at its maximum, as opposed to the concentration needed. In general, EC50 refers to the midpoint of the concentration-response curve. Read a high EC50 as a less potent agent.
